Assay results from PubChem BioAssay (NCI).
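Grown in 96-well plates, cells were treated for 48 hours with each compound at five concentrations. Insufficient inhibition: endpoint recorded as highest concentration tested. TGI: total growth inhibition.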

Experiments:
Assay in all cases: inhibition of tumour cell growth, NCI panel, 48 h
OVCAR-8 ovarian = system: OVCAR-8 ovarian
A549 NSCLC = system: A549 NSCLC
RXF 393 renal = system: RXF 393 renal
EKVX NSCLC = system: EKVX NSCLC
786-0 renal = system: 786-0 renal
SK-MEL-5 melanoma = system: SK-MEL-5 melanoma
HT29 colon = system: HT29 colon
SF-295 CNS = system: SF-295 CNS
SNB-75 CNS = system: SNB-75 CNS
SK-MEL-2 melanoma = system: SK-MEL-2 melanoma
NCI-H226 lung = system: NCI-H226 lung
SF-268 CNS = system: SF-268 CNS
U251 CNS = system: U251 CNS
NCI/ADR-RES ovarian = system: NCI/ADR-RES ovarian
SNB-19 CNS = system: SNB-19 CNS
CAKI-1 renal = system: CAKI-1 renal
ACHN renal = system: ACHN renal
NCI-H23 lung = system: NCI-H23 lung
NCI-H522 lung = system: NCI-H522 lung
NCI-H460 lung = system: NCI-H460 lung
HL-60(TB) leukemia = system: HL-60(TB) leukemia
DU-145 prostate = system: DU-145 prostate
SN12C renal = system: SN12C renal
OVCAR-4 ovarian = system: OVCAR-4 ovarian
UACC-257 melanoma = system: UACC-257 melanoma
MDA-MB-231 breast = system: MDA-MB-231 breast
MDA-N = system: MDA-N
KM12 colon = system: KM12 colon
HCT-15 colon = system: HCT-15 colon
M14 melanoma = system: M14 melanoma
A498 renal = system: A498 renal
TK-10 renal = system: TK-10 renal
CCRF-CEM leukemia = system: CCRF-CEM leukemia
HS 578T breast = system: HS 578T breast
COLO 205 colon = system: COLO 205 colon
HOP-92 NSCLC = system: HOP-92 NSCLC
OVCAR-5 ovarian = system: OVCAR-5 ovarian
UO-31 renal = system: UO-31 renal
IGROV1 ovarian = system: IGROV1 ovarian
SF-539 CNS = system: SF-539 CNS
MOLT-4 leukemia = system: MOLT-4 leukemia
T-47D breast = system: T-47D breast
SW-620 colon = system: SW-620 colon
MALME-3M melanoma = system: MALME-3M melanoma
BT-549 breast = system: BT-549 breast
HCT-116 colon = system: HCT-116 colon
SK-MEL-28 melanoma = system: SK-MEL-28 melanoma
MDA-MB-435 = system: MDA-MB-435
MCF7 breast = system: MCF7 breast
LOX IMVI melanoma = system: LOX IMVI melanoma
SR leukemia = system: SR leukemia
HCC-2998 colon = system: HCC-2998 colon
PC-3 prostate = system: PC-3 prostate
HOP-62 NSCLC = system: HOP-62 NSCLC
K-562 leukemia = system: K-562 leukemia
UACC-62 melanoma = system: UACC-62 melanoma
OVCAR-3 ovarian = system: OVCAR-3 ovarian
RPMI-8226 leukemia = system: RPMI-8226 leukemia
SK-OV-3 ovarian = system: SK-OV-3 ovarian

Measured: TGI

O=c1c(-c2ccccc2)nnc2n(Cc3ccccc3)c3ccccc3n12
> 100 µM: OVCAR-8 ovarian | A549 NSCLC | RXF 393 renal | EKVX NSCLC | 786-0 renal | SK-MEL-5 melanoma | HT29 colon | SF-295 CNS | SNB-75 CNS | SK-MEL-2 melanoma | NCI-H226 lung | SF-268 CNS | U251 CNS | NCI/ADR-RES ovarian | SNB-19 CNS | CAKI-1 renal | ACHN renal | NCI-H23 lung | NCI-H522 lung | NCI-H460 lung | HL-60(TB) leukemia | DU-145 prostate | SN12C renal | OVCAR-4 ovarian | UACC-257 melanoma | MDA-MB-231 breast | MDA-N | KM12 colon | HCT-15 colon | M14 melanoma | A498 renal | TK-10 renal | CCRF-CEM leukemia | HS 578T breast | COLO 205 colon | HOP-92 NSCLC | OVCAR-5 ovarian | UO-31 renal | IGROV1 ovarian | SF-539 CNS | MOLT-4 leukemia | T-47D breast | SW-620 colon | MALME-3M melanoma | BT-549 breast | HCT-116 colon | SK-MEL-28 melanoma | MDA-MB-435 | MCF7 breast | LOX IMVI melanoma | SR leukemia | HCC-2998 colon

O=C(NCCC1CNc2ccccc21)OCc1ccccc1 (stereo not drawn)
> 100 µM: OVCAR-8 ovarian | A549 NSCLC | RXF 393 renal | EKVX NSCLC | 786-0 renal | SK-MEL-5 melanoma | HT29 colon | SF-295 CNS | SK-MEL-2 melanoma | SF-268 CNS | U251 CNS | NCI/ADR-RES ovarian | PC-3 prostate | SNB-19 CNS | CAKI-1 renal | HOP-62 NSCLC | ACHN renal | NCI-H23 lung | NCI-H522 lung | NCI-H460 lung | DU-145 prostate | OVCAR-4 ovarian | UACC-257 melanoma | MDA-MB-231 breast | MDA-N | KM12 colon | HCT-15 colon | K-562 leukemia | M14 melanoma | A498 renal | CCRF-CEM leukemia | HS 578T breast | UACC-62 melanoma | COLO 205 colon | HOP-92 NSCLC | OVCAR-5 ovarian | UO-31 renal | OVCAR-3 ovarian | IGROV1 ovarian | MOLT-4 leukemia | RPMI-8226 leukemia | SW-620 colon | MALME-3M melanoma | BT-549 breast | HCT-116 colon | SK-MEL-28 melanoma | MDA-MB-435 | MCF7 breast | SK-OV-3 ovarian | SR leukemia | HCC-2998 colon
